Measured values from patent US11753397B2, “Cereblon binders for the degradation of ikaros” (C4 Therapeutics, Inc., priority 2018, dated 2023).

Tested on: NCIH929.1 cells
Test: Cell viability assay (CellTiter-Glo 2.0, ATP quantification)
Format: cell-based
Conditions: NCIH929.1 cell viability, CellTiter-Glo 2.0, 96 hr incubation, top concentration 1 μM
Procedure, shortened: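 Read-out is CellTiter-Glo 2.0 luminescence (ATP), after 96 h compound exposure at 37 °C, with a day-0 plate giving the CT0 baseline. Duplicate 10-point half-log titration from 1 μM applied to 750 cells/well in RPMI, 10% FBS, 0.05 mM 2-mercaptoethanol.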

| SMILES | GI50 [nM] |
| --- | --- |
| CCC1(C(=O)N2CCC(n3cc(CNc4cccc5c4C(=O)N(C4CCC(=O)NC4=O)C5=O)cn3)CC2)CCC1 (centres unmarked) [Compound 86, 2-(2,6-dioxopiperidin-3-yl)-4-(((1-(1-(1-ethylcyclobutane-1-carbonyl)piperidin-4-yl)-1H-pyrazol-4-yl)methyl)amino)isoindoline-1,3-dione] | < 100 |
| CC1(C(=O)N2CCC(n3cc(CNc4cccc5c4C(=O)N(C4CCC(=O)NC4=O)C5=O)cn3)CC2)CC1(Cl)Cl (centres unmarked) [Compound 87, 4-(((1-(1-(2,2-dichloro-1-methylcyclopropane-1-carbonyl)piperidin-4-yl)-1H-pyrazol-4-yl)methyl)amino)-2-(2,6-dioxopiperidin-3-yl)isoindoline-1,3-dione] | < 1 |
| O=C1CCC(N2C(=O)c3cccc(NCc4cnn(C5CCN(C(=O)N6CCCCC6)CC5)c4)c3C2=O)C(=O)N1 (centres unmarked) [Compound 88, 2-(2,6-dioxopiperidin-3-yl)-4-(((1-(1-(piperidine-1-carbonyl)piperidin-4-yl)-1H-pyrazol-4-yl)methyl)amino)isoindoline-1,3-dione] | < 100 |
| CC1(C)C(C(=O)N2CCC(n3cc(CNc4cccc5c4C(=O)N(C4CCC(=O)NC4=O)C5=O)cn3)CC2)C1(C)C (centres unmarked) [Compound 89, 2-(2,6-dioxopiperidin-3-yl)-4-(((1-(1-(2,2,3,3,3-tetramethylcyclopropane-1-carbonyl)piperidin-4-yl)-1H-pyrazol-4-yl)methyl)amino)isoindoline-1,3-dione] | < 1 |
| CC(C)(C)C(=O)N1CCC(n2cc(CNc3cccc4c3C(=O)N(C3CCC(=O)NC3=O)C4=O)cn2)CC1 (centres unmarked) [Compound 90, 2-(2,6-dioxopiperidin-3-yl)-4-(((1-(1-pivaloylpiperidin-4-yl)-1H-pyrazol-4-yl)methyl)amino)isoindoline-1,3-dione] | < 1 |
| O=C1CCC(N2C(=O)c3cccc(NCc4cnn(C5CCN(C(=O)C67CC(CO6)C7)CC5)c4)c3C2=O)C(=O)N1 (centres unmarked) [Compound 91, 4-(((1-(1-(2-oxabicyclo[2.1.1]hexane-1-carbonyl)piperidin-4-yl)-1H-pyrazol-4-yl)methyl)amino)-2-(2,6-dioxopiperidin-3-yl)isoindoline-1,3-dione] | < 100 |
| O=C1CCC(N2C(=O)c3cccc(NCc4cnn(C5CCN(C(=O)C6(Cc7ccc(F)cc7)CC6)CC5)c4)c3C2=O)C(=O)N1 (centres unmarked) [Compound 92, 2-(2,6-dioxopiperidin-3-yl)-4-(((1-(1-(1-(4-fluorobenzyl)cyclopropane-1-carbonyl)piperidin-4-yl)-1H-pyrazol-4-yl)methyl)amino)isoindoline-1,3-dione] | < 100 |
| C#CC1(C(=O)N2CCC(n3cc(CNc4cccc5c4C(=O)N(C4CCC(=O)NC4=O)C5=O)cn3)CC2)CCC1 (centres unmarked) [Compound 93, 2-(2,6-dioxopiperidin-3-yl)-4-(((1-(1-(1-ethynylcyclobutane-1-carbonyl)piperidin-4-yl)-1H-pyrazol-4-yl)methyl)amino)isoindoline-1,3-dione] | < 1 |
| O=C1CCC(N2C(=O)c3cccc(NCc4cnn(C5CCN(C(=O)C6(C7CC7)CCC6)CC5)c4)c3C2=O)C(=O)N1 (centres unmarked) [Compound 94, 4-(((1-(1-(1-cyclopropylcyclobutane-1-carbonyl)piperidin-4-yl)-1H-pyrazol-4-yl)methyl)amino)-2-(2,6-dioxopiperidin-3-yl)isoindoline-1,3-dione] | < 1 |
| O=C1CCC(N2C(=O)c3cccc(NCc4cnn(C5CCN(C(=O)C67C8C9C%10C8C6C%10C97)CC5)c4)c3C2=O)C(=O)N1 [Compound 95, 4-(((1-(1-((1s,4R,3R,4r,5r,6S,7S,8s)-cubane-1-carbonyl)piperidin-4-yl)-1H-pyrazol-4-yl)methyl)amino)-2-(2,6-dioxopiperidin-3-yl)isoindoline-1,3-dione] | < 1 |
| O=C1CCC(N2C(=O)c3cccc(NCc4cnn(C5CCN(C(=O)C6(Cc7ccc(F)cc7)CCC6)CC5)c4)c3C2=O)C(=O)N1 (centres unmarked) [Compound 96, 2-(2,6-dioxopiperidin-3-yl)-4-(((1-(1-(1-(4-fluorobenzyl)cyclobutane-1-carbonyl)piperidin-4-yl)-1H-pyrazol-4-yl)methyl)amino)isoindoline-1,3-dione] | < 1 |
